Results published in PMC8651387, “Synthesis and Evaluation of the Acetylcholinesterase Inhibitory Activities of Some Flavonoids Derived from Naringenin” (The Scientific World Journal, 2021).
Where “and” joins values, the source holds several entries; their conditions need not be identical. Identical values can stand only once. Like-named read-outs stand apart in the source and are kept apart here.

Assays:
[1] = target: AChE (Homo sapiens, UniProt P22303); assay: biochemical; conditions: for IC50: pH 8, 25°C, triplicate
Chain of AChE (P22303 32-614): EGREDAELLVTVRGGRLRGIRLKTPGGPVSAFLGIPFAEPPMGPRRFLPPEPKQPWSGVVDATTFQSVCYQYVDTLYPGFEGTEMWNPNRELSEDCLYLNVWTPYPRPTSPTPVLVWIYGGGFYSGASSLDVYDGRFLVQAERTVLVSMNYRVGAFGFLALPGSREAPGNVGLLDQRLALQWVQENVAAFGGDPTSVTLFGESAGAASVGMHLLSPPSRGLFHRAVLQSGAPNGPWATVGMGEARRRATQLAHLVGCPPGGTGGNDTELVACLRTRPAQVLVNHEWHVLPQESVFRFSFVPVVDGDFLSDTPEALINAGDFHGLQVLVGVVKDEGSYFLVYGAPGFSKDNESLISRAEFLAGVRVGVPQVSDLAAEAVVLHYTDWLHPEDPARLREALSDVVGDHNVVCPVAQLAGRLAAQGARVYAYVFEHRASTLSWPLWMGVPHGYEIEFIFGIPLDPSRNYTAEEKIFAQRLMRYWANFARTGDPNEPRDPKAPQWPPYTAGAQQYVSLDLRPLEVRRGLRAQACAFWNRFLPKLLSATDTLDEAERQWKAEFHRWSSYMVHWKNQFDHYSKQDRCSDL

[2] = Solubility in water and solvents (compound description)
[3] = AChE 0.25 UI/mL, read-out: IC50

Row | SMILES | IC50 ([1]; IC50, AChE 0.25 UI/mL) [µM] | AChE inhibitory activity (in words) [1] | IC50 [1, 3] | Solubility in acetone [2] | Solubility in dichloromethane [2] | Solubility in methanol [2] | Solubility in water [2]
1 | COc1cc(O)c2c(c1)OC(c1ccc(O)cc1)CC2=O (stereo not drawn) [Compound 1, 4′,5-Dihydroxy-7-methoxyflavanone] | > 100 |  |  |  |  |  | 
2 | COc1ccc(C2CC(=O)c3c(O)cc(OC)cc3O2)cc1 (stereo not drawn) [Compound 2, 5-Hydroxy-4′,7-dimethoxyflavanone] |  | improved activities over naringenin | < 100 µM and 75 µM | soluble | highly soluble | sparingly soluble | insoluble
3 | COc1ccc(/C=C/C(=O)c2c(OC)cc(OC)cc2OC)cc1 [Compound 3, (E)-2′,4,4′,6′-Tetramethoxychalcone] | > 100 |  |  | soluble | highly soluble | sparingly soluble | insoluble
4 | CCOc1ccc(/C=C/C(=O)c2c(O)cc(OCC)cc2OCC)cc1 [Compound 4, (E)-2′,4,4′-Triethoxy-6′-hydroxychalcone] |  | improved activities over naringenin | < 100 µM and 39.8 µM | soluble | highly soluble | slightly soluble | insoluble
5 | C=CCOc1cc(O)c2c(c1)OC(c1ccc(O)cc1)CC2=O (stereo not drawn) [Compound 5, 7-Allyloxy-4′,5-dihydroxyflavanone] |  | improved activities over naringenin | < 100 µM and 48.4 µM | highly soluble | sparingly soluble | sparingly soluble | insoluble
6 | C=CCOc1ccc(C2CC(=O)c3c(O)cc(OCC=C)cc3O2)cc1 (stereo not drawn) [Compound 6, 4′,7-Diallyloxy-5-hydroxyflavanone] |  | negligible biological effects | > 100 µM | soluble | highly soluble | sparingly soluble | insoluble
7 | C=CCOc1ccc(/C=C/C(=O)c2c(O)cc(OCC=C)cc2OCC=C)cc1 [Compound 7, (E)-2′,4,4′-Triallyloxy-6′-hydroxychalcone] |  | improved activities over naringenin | < 100 µM and 13 µM | soluble | highly soluble | sparingly soluble | insoluble
8 | O=C(/C=C/c1ccc(OCc2ccccc2)cc1)c1c(O)cc(OCc2ccccc2)cc1OCc1ccccc1 [Compound 8, (E)-2′,4,4′-Tribenzyloxy-6′-hydroxychalcone] |  |  | > 100 µM | soluble | soluble | insoluble | insoluble
9 | O=C(/C=C/c1ccc(OCc2ccccc2)cc1)c1c(OCc2ccccc2)cc(OCc2ccccc2)cc1OCc1ccccc1 [Compound 9, (E)-2′,4,4′,6′-Tetrabenzyloxychalcone] |  | negligible biological effects | > 100 µM | soluble | highly soluble | slightly soluble | insoluble
10 | O=C1C[C@@H](c2ccc(O)cc2)Oc2cc(O)cc(O)c21 [Naringenin] | 150 ± 4.6 |  |  |  |  |  | 
